Results: US11247983B2, “Compounds and methods for inhibiting JAK” (Dizal (Jiangsu) Pharmaceutical Co., Ltd., priority 2015, dated 2022)

Tests used:
[1] = test system: pEGFR (pY1173) in LG1049 tumors; test: pEGFR levels in LG1049 tumor lysates (Western blot, Example 72); format: in vivo, mice; settings: osimertinib 25 mg/kg QD, 5 days of treatment, 4H after the final dose
Excerpt: (§1) MATERIALS AND METHODS: LG1049 tumor fragments were implanted subcutaneously in female NSG mice (JAX Stock No. 005557).

[2] = test system: LG1049 non-small cell lung cancer PDX tumor xenografts; test: In vivo efficacy in the LG1049 xenograft PDX model (Example 72)
Description: SUMMARY: LG1049 non-small cell lung cancer PDX tumor xenografts were grown subcutaneously in female NSG mice. […] Tumor volume was measured twice a week.
as §1

[3] = test system: NCI-H1975 tumor xenografts; test: In vivo efficacy in the H1975 xenograft model (Example 69); set-up: species or system mice; settings: oral, 18 days; osimertinib 2.5 mg/kg QD, Example 32 12.5, 25 or 50 mg/kg BID; combination compared to osimertinib alone, single agent relative to vehicle
Description: (§2) Tumor volume was measured twice a week.

[4] = test system: pSTAT3 (Y705) in PC-9 tumors; test: pSTAT3 (Y705) levels in PC-9 tumor lysates (Western blot, Example 70); format: in vivo, mice; settings: Example 32 12.5 and 50 mg/kg BID with gefitinib, last day of treatment, 2, 8 and 24 hours after the AM dose
[5] = test system: pSTAT3 (Y705) in NCI-H1650 tumors; test: pSTAT3 levels in NCI-H1650 tumor lysates (Western blot, Example 71); format: in vivo, mice; settings: measured after one day of treatment
Description: Twenty-three days after cell implantation, the mice were randomized into 6 groups (9 mice/group, average tumor volume 257 mm^3, range 205-303 mm^3). […] Drug levels in plasma were measured by LC/MS, using a Linear Ion Trap Quadrupole LC/MS/MS Mass Spectrometer (QTRAP 5500 model 1024945-BB, AB Sciex Instruments), with separation on a Waters Xbridge C18 column.

[6] = test system: NCI-H1975 tumor xenografts; test: In vivo efficacy of intermittent Example 32 dosing schedules in the H1975 xenograft model (Example 73); set-up: species or system mice; settings: oral, 19 to 29 days; osimertinib 2.5 mg/kg QD, Example 32 12.5, 25 or 50 mg/kg BID on continuous or intermittent schedules; combination compared to osimertinib alone, single agent relative to vehicle
Description: as §2
MATERIALS AND METHODS: NCI-H1975 cells (a human NSCLC cell line with L858R and T790M mutations in the EGFR gene), were implanted subcutaneously in female NCr nude mice (Taconic Laboratories), 3×10^6 cells/mouse.

[7] = test system: pSTAT3 (Y705) in LG1049 tumors; test: pSTAT3 levels in LG1049 tumor lysates (Western blot, Example 72); format: in vivo, mice; settings: Example 32 25 mg/kg BID, 5 days of treatment, 4H after the final dose
Description: MATERIALS AND METHODS: LG1049 tumor fragments were implanted subcutaneously in female NSG mice (JAX Stock No. 005557). Once tumor volumes reached ˜125-275 mm^3, mice were randomized into 5 groups (10 mice/group, average tumor volume 189 mm^3, range 138-253 mm^3).

[8] = test system: pSTAT3 (Y705) in NCI-H1975 tumors; test: pSTAT3 (Y705) levels in NCI-H1975 tumor lysates (pharmacodynamics, Example 69); format: in vivo, mice; settings: Example 32 12.5, 25, 50 mg/kg BID, after one day of treatment, samples 2, 8 and 24 hours after the AM dose
Description: MATERIALS AND METHODS: NCI-H1975 cells (a human NSCLC cell line with L858R and T790M mutations in the EGFR gene) tumor cells were implanted subcutaneously in female NCr nude mice (Taconic Laboratories), 3×10^6 cells/mouse. […] Drug levels in plasma were measured by LC/MS, using a Linear Ion Trap Quadrupole LC/MS/MS Mass Spectrometer (QTRAP 5500 model 1024945-BB, AB Sciex Instruments), with separation on a Waters Xbridge C18 column.

[9] = test system: NCI-H1650 tumor xenografts; test: In vivo efficacy in the H1650 xenograft model (Example 71); set-up: species or system mice; settings: oral, 21 days; gefitinib 6.25 mg/kg QD, Example 32 25 or 50 mg/kg BID; combination compared to single agent gefitinib
Description: as §2

SMILES | knockdown of pEGFR in tumors (FIG. 30) [1] | body weight (FIG. 29) ([2]; LG1049 tumor bearing NSG mice, weight loss attributed to tumor growth) | tumor regrowth when treatment was stopped after 28 days ([2]; after 28 days of dosing) | antitumor activity (tumor volume, FIG. 19) [3] | duration of pSTAT3 knockdown in tumors (FIG. 24) [4] | knockdown of pSTAT3 in tumors (FIG. 27) [5] | antitumor activity (tumor volume, FIG. 31A-31E) [6] | knockdown of pSTAT3 in tumors (FIG. 30) [7] | body weight (FIG. 29) ([2]; mouse, in vivo) | antitumor activity / tumor regression (tumor volume, FIG. 28) ([2]; oral, osimertinib 25 mg/kg QD 28 days, Example 32 25 mg/kg BID (18 days as single agent), combination compared to osimertinib alone, single agent relative to vehicle) | pSTAT3 knockdown in tumors (FIG. 21) [8] | antitumor activity (tumor volume, FIG. 25) [9]
C=CC(=O)Nc1cc(Nc2nccc(-c3cn(C)c4ccccc34)n2)c(OC)cc1N(C)CCN(C)C [osimertinib, reference compound] | robust knockdown | lack of significant weight loss | tumors rapidly regrew | – | – | – | – | – | – | – | – | –
COc1nn(C)cc1Nc1nccc(-c2c[nH]c3c(NC(=O)[C@@H](C)N4CCN(C)CC4)cccc23)n1 [Example 32, (2R)-N-(3-{2-[(3-methoxy-1-methyl-1H-pyrazol-4-yl)amino]pyrimidin-4-yl}-1H-indol-7-yl)-2-(4-methylpiperazin-1-yl)propanamide] | – | – | – | only weak antitumor activity | dose dependent increase in the duration of pSTAT3 knockdown | Knockdown of pSTAT3 was observed | no significant activity relative to vehicle control treatment | robust knockdown | significant weight loss | no significant activity relative to vehicle control treatment | dose dependent increase in pSTAT3 knockdown | only modest antitumor activity
